This is an account of results in ChEMBL document CHEMBL1955766, “Structure guided development of novel thymidine mimetics targeting Pseudomonas aeruginosa thymidylate kinase: from hit to lead generation” (J Med Chem, 2012).

Converted amounts (≈) assume the structure as drawn.

This experiment deals with Mycobacterium tuberculosis variant bovis. Description: Antibacterial activity against Mycobacterium bovis. The class given is functional.

By MIC is commonly meant the lowest concentration that inhibits growth of the organism. Compound `Cc1cn([C@@H]2C[C@H](O)[C@@H](CNC(=S)Nc3ccc(Cl)c(Cl)c3)O2)c(=O)[nH]c1=O` gave a minimal inhibitory concentration (MIC) of 25 µg/mL (≈ 56.1 µM).
